Test results published in patent US6767558B2, “Inhibiting oxidative degradation of pharmaceutical formulations” (Pfizer Inc., priority 2000, dated 2004).

Assays:
[1] = Accelerated stability of Compound 2 formulations; N-oxide degradation product by RPLC; type: physicochemical; conditions: addition of ferrous ion source to the formulations, six weeks
Description: Compound 2 was similarly formulated with, inter alia, excipients comprising about 0.01% of ferrous ammonium sulfate hexahydrate into solid binary pharmaceutical formulations. The excipients further included microcrystalline cellulose (Avicel®), lactose, or silicified microcrystalline cellulose (Prosolv®; Penwest Pharmaceuticals; Patterson, N.Y.).
The formulations so prepared were then stored under accelerated stability conditions, i.e. at 40° C. at 75% relative humidity and 50° C. at 20% relative humidity for six weeks. Reversed-phase ion pair liquid chromatography (RPLC) was used to separate Compound 2 from its N-oxide oxidative degradation product. RPLC was performed utilizing a Waters Symmetry C18 column (Waters Instrument Co.; Milford, Mass.) 15 cm length×3.9 mm I.D. at a temperature of 40° C. using a mobile phase of buffer (20 mM KH2PO4 (pH adjusted to 3.0 with phosphoric acid, with 0.1% octanesulfonic acid): acetonitrile (60:40 v/v), a flow rate of 1.0 mL/min., and an injection volume of 10 μL at a run time of 35 minutes. [drawing 2]

[2] = Accelerated stability of Compound 1 tablets; oxidative degradation by-products by RPLC; type: physicochemical; conditions: addition of ferrous ion source to the formulation, six weeks
Description: Compound 1 was formulated with, inter alia, excipients comprising about 0.01% by weight of ammonium ferrous sulfate hexahydrate into solid binary pharmaceutical formulations as follows. A solution of 350 mg of ferrous ammonium sulfate hexahydrate, dissolved in 100 ml of pure water, was added to 500 g of microcrystalline cellulose (Avicel®; FMC; Philadelphia, Pa.) and the mixture was mixed thoroughly for about ten minutes. The mixture was then dried in an Aeromatic fluid-bed dryer (Niro Inc.; Columbia, Md.) at an inlet temperature of 65° C. The dried Avicel® excipient so prepared comprising the ferrous ion source was milled through a Mini-Comil 193 (Quadro Engineering; Waterloo, Ontario, Canada) with a stainless steel screen. This identical procedure was employed to prepare excipients comprising lactose and the ferrous ion source. A pre-determined amount of Compound 1, the dried Avicel® or lactose excipient comprising the ferrous ion source, and crospovidone (BASF Corp.; Mount Olive, N.J.) were added to a stainless steel V-blender and blended for about 20 minutes. Magnesium stearate was then added and the resulting mixture was blended for an additional five minutes. […]

SMILES: Oc1ccc2c(c1)CC[C@H](c1ccccc1)[C@@H]2c1ccc(OCCN2CCCC2)cc1 (relative stereo) [Compound 2, cis-6-phenyl-5-[4-(2-pyrrolidin-1-yl-ethoxy)-phenyl]-5,6,7,8-tetrahydronaphthalen-2-ol]
- formation of N-oxide oxidative degradation by-product on addition of the ferrous ion source [1]: inhibited significantly

SMILES: COc1ccc(C(C)C)cc1CN[C@H]1C2CCN(CC2)[C@H]1C(c1ccccc1)c1ccccc1 [Compound 1, (2S,3S)-N-(5-isopropyl-2-methoxyphenyl)methyl-2-diphenylmethyl-1-azabicyclo[2.2.2]octan-3-amine]
- formation of M+16 and M+32 oxidative degradation by-products on addition of the ferrous ion source [2]: inhibited significantly
